Reference: article PMC6515479, “An Investigation on Glucuronidation Metabolite Identification, Isozyme Contribution, and Species Differences of GL-V9 In Vitro and In Vivo” (Molecules, 2019)

Tests used:
Format in all cases: in vitro ADME
[1] = Enzyme kinetics of GL-V9 glucuronidation in rat liver microsomes (RLMs); conditions: rat, liver microsomes, pH 7.4, formation of 5-O-glucuronide GL-V9, protein 0.1 mg/mL, mean ± SD, n = 3
Method: (§1) The composition of the incubation system (200 μL) contained liver microsomes of different species (0.1 mg protein/mL), 5 mM saccharolactone (D-saccharic acid 1,4-lactone monohydrate), 10 mM MgCl2, alamethicin (50 μg/mg protein), Tris-HCl buffer (50 mM, pH 7.4) and GL-V9 (1 μM). After 5 min of preincubation at 37 °C, UDPGA (5 mM) was added to initiate the phase II reaction. Control incubation samples were performed without UDPGA or without substrates (GL-V9). The reaction was terminated by addition of ice-cold methanol (three volumes) after incubation for 1 h at 37 °C. Samples were vortexed, centrifuged at 21,500× g for 10 min and then stored at 4 °C until HPLC-UV-TripleTOF analysis. To confirm that these metabolites are conjugates resulting from glucuronidation reaction, enzymatic hydrolysis of samples was processed. β-glucuronidase (100 KU, Sigma) was added and the hydrolysis was performed overnight at 37 °C. The control samples were carried out without β-glucuronidase under the same condition.
(§2) Enzyme kinetics experiments were carried out in triplicate among five different species, including monkey, beagle dog, rat, mouse, and human. The reaction system and operations are as same as described in Section 4.3. The solutions of GL-V9 were selected over a range of concentrations (0.05, 0.2, 0.5, 1, 2, 5, 10, 20 μM). […]

[2] = system: rat liver microsomes (RLMs); experiment: as above; conditions: formation of 5-O-glucuronide GL-V9, protein 0.1 mg/mL, mean ± SD, n = 3
Method: as §1, §2

[3] = biological target: T1, rUGT1A6 (Homo sapiens, UniProt P19224); experiment: UGT phenotyping of GL-V9 glucuronidation, rUGT1A6; conditions: GL-V9 0.5, 1, 5 μM, 37 °C, 1 h
T1 construct: purchased Corning (Woburn, MA, USA)
T1 sequence (P19224 27-532): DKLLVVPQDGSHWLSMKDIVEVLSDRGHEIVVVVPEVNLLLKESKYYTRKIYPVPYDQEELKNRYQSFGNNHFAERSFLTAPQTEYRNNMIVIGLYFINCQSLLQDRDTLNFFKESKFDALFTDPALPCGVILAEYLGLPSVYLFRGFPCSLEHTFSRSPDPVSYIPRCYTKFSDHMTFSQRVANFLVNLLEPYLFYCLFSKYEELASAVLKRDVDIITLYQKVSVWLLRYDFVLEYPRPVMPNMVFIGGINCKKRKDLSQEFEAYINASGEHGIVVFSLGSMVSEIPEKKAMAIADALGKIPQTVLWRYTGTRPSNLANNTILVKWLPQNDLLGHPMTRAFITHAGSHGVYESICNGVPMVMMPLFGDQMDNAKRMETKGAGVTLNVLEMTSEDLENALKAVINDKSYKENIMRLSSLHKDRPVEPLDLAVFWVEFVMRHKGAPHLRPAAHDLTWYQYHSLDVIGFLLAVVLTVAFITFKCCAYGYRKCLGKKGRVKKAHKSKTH
Method: as §1
(§3) Twelve human recombinant UGT isoforms (rUGT1A1, rUGT1A3, rUGT1A4, rUGT1A6, rUGT1A7, rUGT1A8, rUGT1A9, rUGT1A10, rUGT2B4, rUGT2B7, rUGT2B15, and rUGT2B17) were employed to identify the main UGT enzyme(s) responsible for glucuronidation of GL-V9 under mixture conditions as described in Section 4.3. […]

[4] = biological target: T2, rUGT1A10 (Homo sapiens, UniProt Q9HAW8); experiment: UGT phenotyping of GL-V9 glucuronidation, rUGT1A10; conditions: GL-V9 0.5, 1, 5 μM, 37 °C, 1 h
T2 construct: purchased Corning (Woburn, MA, USA)
T2 sequence (Q9HAW8 26-530): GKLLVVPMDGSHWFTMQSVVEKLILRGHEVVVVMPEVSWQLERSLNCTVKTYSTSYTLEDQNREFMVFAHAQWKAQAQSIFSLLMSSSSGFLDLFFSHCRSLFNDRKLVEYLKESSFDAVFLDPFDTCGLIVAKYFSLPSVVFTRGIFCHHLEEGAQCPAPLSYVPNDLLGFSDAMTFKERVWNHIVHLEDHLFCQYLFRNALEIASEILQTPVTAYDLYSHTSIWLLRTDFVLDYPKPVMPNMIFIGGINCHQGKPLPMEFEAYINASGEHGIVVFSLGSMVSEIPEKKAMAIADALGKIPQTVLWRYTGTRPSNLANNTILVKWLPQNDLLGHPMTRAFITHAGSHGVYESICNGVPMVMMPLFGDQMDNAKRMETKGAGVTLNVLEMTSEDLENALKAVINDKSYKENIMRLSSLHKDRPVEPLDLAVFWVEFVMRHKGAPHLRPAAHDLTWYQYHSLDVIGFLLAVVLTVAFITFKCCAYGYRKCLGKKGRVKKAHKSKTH
Method: as §1, §3

COc1c(OCCCCN2CCCC2)cc(O)c2c(=O)cc(-c3ccccc3)oc12 [GL-V9]
Km at 1 h [1]: 6.54 ± 0.33 µM | Vmax [2]: 32.72 ± 1.45 pmol/min/mg | Metabolism rate (glucuronidation) [3]: too low to be biologically relevant | Metabolism rate (glucuronidation) [4]: too low to be biologically relevant
